Converted amounts (≈) assume the structure as drawn. “Also recorded” adds a separate entry of the source.
Assays:
S. aureus W4 = assay: Biofilm inhibition assay (crystal violet); assay type: cell-based, Staphylococcus aureus; conditions: any of the concentrations tested (3.12, 6.25, 12.5 μg/mL)
Method: (§1) After overnight growth in LB, cultures of P. aeruginosa ATCC 27853 and S. aureus W4 were diluted 1:100 in LB or in 50% tryptone soy broth (TSB, Oxoid) supplemented with 0.25% glucose (Sigma), respectively. The bacterial suspensions were dispensed into flat-bottomed polystyrene 96-well microplates (Corning Costar, Lowell, MA, USA) in the presence of sub-MIC concentrations of Rhe and DIA (3.12, 6.25, and 12.5 μg/mL). A sample containing 0.8 DMSO % (corresponding to the highest concentration of DMSO tested) was used as a control. The microplates were incubated statically at 37 °C for 24 h, and the biofilm biomass was estimated by CV (Sigma-Aldrich) staining assay, as previously described.

[1] = system: S. aureus (clinical isolate W4); assay: MIC determination (microdilution); assay type: cell-based, Staphylococcus aureus
Method: A clinical isolate of S. aureus (W4) and the reference strain of P. aeruginosa ATCC 27853 were used in the study. For the preparation of stock cultures, bacterial strains were grown in Luria–Bertani broth (LB, Oxoid, Basingstoke, Hampshire, UK) until the late-log phase, subdivided into aliquots, and kept frozen at −80 °C until use. Identification and susceptibility testing of the S. aureus W4 strain were performed using MALDI-TOF (Bruker Daltonics, Bremen, Germany) and the BD Phoenix susceptibility testing system (BD, Milan, Italy), respectively.
The susceptibility of the bacterial strains to each of the tested compounds was assessed in terms of MIC values according to the standard microdilution method (Clinical and Laboratory Standards Institute–CLSI, 2018), with some modifications. Briefly, the bacteria were grown in LB broth until the exponential growth phase and then diluted in the same medium to reach a final density of 5 × 10^6 CFU/mL. A volume of 10 μL of the bacterial suspensions was added to 90 μL of LB in a 96-well plate in the absence (viability control) or presence of the test compound at different concentrations.

[2] = system: BALB/3T3 clone A31 fibroblast cells; assay: Cytotoxicity screening (WST-1); assay type: cell-based, murine; conditions: Mus musculus, 4 h incubation, read-out: IC50 of cell viability
Method: BALB/3T3 clone A31 fibroblast cells were grown in Dulbecco’s Modified Eagle Medium (DMEM), supplemented with 2 mM L-glutamine, 1% penicillin/streptomycin, and 10% bovine calf serum. Cells were grown in a CO2 incubator (Heracell 150i series) at 37 °C and 5% CO2, with cells sub-cultured at 80–90% confluency. The cell monolayers were rinsed with PBS and treated with trypsin–EDTA to detach the cells before their resuspension in fresh media. A subconfluent monolayer of BALB/3T3 clone A31 fibroblast cells was trypsinised, centrifuged at 1000 rpm for 5 min, resuspended in growth medium, and counted.
A cytotoxicity screening was carried out for both ILs (range […]), as well as DIA and Rhe (0.5–200 mg/mL). Briefly, BALB/3T3 clone A31 fibroblast cells were seeded in each well of 96-well plates at a seeding density of 6 × 10^3 cells/well for 24 h, until 60–70% confluence was reached. After 24 h, the medium was then removed from each well and replaced with DMEM containing the samples.
After 4 h of incubation, the media were removed, replaced with fresh medium containing 10% WST-1 reagent solution, and maintained for 4 h at 37° C with 5% CO2. Afterwards, formazan dye absorbance was quantified at 450 nm with the reference wavelength at 655 nm by using a multilabel reader (BioTek 800/TS, Thermo Scientific).

[3] = Stabilisation of DIA against hydrolysis to Rhe under simulated physiological conditions; assay type: physicochemical; conditions: pH 7.4, 37 °C; for degradation of DIA / DIA degraded: 6 h
Method: The stabilising effect of Bet6 and Carn6 on DIA’s hydrolysis was investigated under simulated in vitro conditions. […] After equilibrating for 30 min at 25 °C, the samples were transferred to a thermostatic shaking bath at 37 °C, and their pH was rapidly brought to 7.4 by adding 10 N NaOH. At defined time intervals (30 min, 1 h, 2 h, 3 h, 4 h, 5 h, and 6 h), a 500 µL sampling was performed, and the hydrolysis was blocked by adding 2 µL of 37% HCl, bringing the pH back to 5. The amount of Rhe formed over time was evaluated spectrophotometrically. Degradation of DIA was expressed in mol% of Rhe formation. The stabilising capability was compared to that obtained with HP-β-CD by applying the protocol to DIA/HP-β-CD solutions in CB, with molar ratios of 1:3, 1:5, and 1:10.

[4] = Modified Draize test (ocular irritation); assay type: in vivo, New Zealand albino rabbits; conditions: single eye drop instillation, rabbit; observed 0.5-6 h
Method: Male New Zealand albino rabbits weighing approximately 2.6-3 Kg, kept in standard housing conditions, were used for in vivo studies. The animals were treated as prescribed in the guidelines of the European Community Council Directive 2010/63. The animal protocol was approved by the Italian Ministry of University and Research (authorisation n. 192/2019-PR). The eye drops were prepared in CB (200 mOsm/kg). […] (588 mOsm/kg). A suspension of plain DIA (0.34 M) in CB was used as a reference sample (230 mOsm/kg). The samples' osmolality was checked using a Roebling osmometer (calibrated with NaCl 300 mOsm/kg H2O). To assess the irritation of the rabbits' eyes after instillation of the eye drops under study, a modified Draize test was performed, following the procedure previously described in [50]. This irritation test was conducted using a 0 (absence) to 3 (maximum) clinical rating scale for lachrymation, oedema, and conjunctival redness. For each of the samples under study, the test was performed on three rabbits, through a single instillation of the eye drops (50 μL) per rabbit eye, while the untreated contralateral eye was used as a control. […] An overall irritation index (Iirr) was calculated by adding the total clinical evaluation scores for each observation time. A score of 2 or 3 in any category or an Iirr greater than 4 was considered an indicator of clinically significant irritation.

P. aeruginosa ATCC 27853 = assay: Biofilm inhibition assay (crystal violet); assay type: cell-based, Pseudomonas aeruginosa; conditions: any of the concentrations tested (3.12, 6.25, 12.5 μg/mL)
Method: as §1

## CC(=O)Oc1cccc2c1C(=O)c1c(OC(C)=O)cc(C(=O)O)cc1C2=O [DIA, diacerein]
S. aureus W4
  biofilm formation (CV staining, OD 570 nm): no significant effects
[1]; Staphylococcus aureus, planktonic cells, 24 h, 37 °C
  MIC: 50 µg/mL (≈ 136 µM)
[1]; in words (discussion)
  antibacterial effect: exert antibacterial effects
[2]
  IC50: 116 µg/mL (≈ 316 µM)
[3]; 0.018 M Bet6
  degradation of DIA: 39%
[3]; 0.018 M Carn6 solution
  DIA degraded: 91%
[3]; 0.04 M Bet6
  degradation of DIA: 73%
[3]; 0.04 M Carn6 solution
  DIA degraded: 98%
[3]; 0.27 M Bet6 solution (nanoaggregates)
  DIA preserved for 6 h: 71%
[3]; 0.35 M Bet6 solution (nanoaggregates)
  DIA preserved for 6 h: 85%
[3]; Carn6 nanoaggregates present (0.27 M)
  DIA not hydrolysed after 6 h: 26%
[3]; Carn6 nanoaggregates present (0.35 M)
  DIA not hydrolysed after 6 h: 34%
[4]
  ocular irritation signs (conjunctival redness, chemosis/oedema, secretion): modest redness of the conjunctiva and a slight conjunctival chemosis, but no secretion; also recorded: No redness, secretions, or conjunctival oedema
P. aeruginosa ATCC 27853
  biofilm formation (CV staining, OD 570 nm), difference vs control: not statistically significant

Reference: article PMC9916883, “Betaine- and L-Carnitine-Based Ionic Liquids as Solubilising and Stabilising Agents for the Formulation of Antimicrobial Eye Drops Containing Diacerein” (International Journal of Molecular Sciences, 2023)
